Measured values reported in ChEMBL document CHEMBL1136731, “Synthesis and biological evaluation of non-peptidic cyclophilin ligands” (J Med Chem, 2003).

Molecular target: Peptidyl-prolyl cis-trans isomerase A (Rattus norvegicus, UniProt P10111)
Assay: In vitro inhibition of the rotamase activity of cyclophilin A (CyPA)

Chain of Peptidyl-prolyl cis-trans isomerase A (P10111 whole entry): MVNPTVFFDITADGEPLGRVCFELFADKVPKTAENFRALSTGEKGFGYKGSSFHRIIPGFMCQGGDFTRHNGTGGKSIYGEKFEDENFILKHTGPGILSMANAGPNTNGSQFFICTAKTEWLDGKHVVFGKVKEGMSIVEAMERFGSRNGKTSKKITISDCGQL

| IC50 | SMILES |
| --- | --- |
| 4550 nM | O=C(Nc1cccc2ccccc12)NC1CCCC(NC(=O)Nc2cccc3ccccc23)C1 (stereo not drawn) |
| 690 nM | O=C(Nc1cc(Cl)cc(Cl)c1)Nc1cccc(NC(=O)c2cc(Cl)cc(Cl)c2)c1 |
| 590 nM | O=C(Nc1ccc(I)cc1)Nc1cc(NC(=O)Nc2ccc(I)cc2)c(Br)cc1Br |
| 1180 nM | O=C(Nc1ccccc1)Nc1cccc(NC(=O)c2cc(Cl)cc(Cl)c2)c1 |
| 9500 nM | COc1cccc(NC(=O)NC2CCCC(NC(=O)Nc3cccc(OC)c3)C2)c1 (stereo not drawn) |
| 940 nM | O=C(Nc1ccc(C(F)(F)F)cc1)Nc1cccc(NC(=O)c2cc(Cl)cc(Cl)c2)c1 |
| 480 nM | S=C(Nc1cc(Cl)cc(Cl)c1)Nc1cccc(NC(=S)Nc2cc(Cl)cc(Cl)c2)c1 |
| 1410 nM | CCc1ccccc1NC(=O)Nc1cccc(NC(=O)c2cc(Cl)cc(Cl)c2)c1 |
| 620 nM | O=C(Nc1cccc(NC(=O)c2cc(Cl)cc(Cl)c2)c1)Nc1ccc(Br)cc1Br |
| 1120 nM | O=C(Cc1cccc2ccccc12)Nc1cccc(NC(=O)c2cc(Cl)cc(Cl)c2)c1 |
| 2120 nM | Cc1ccccc1CNC(=O)Nc1cccc(NC(=O)c2cc(Cl)cc(Cl)c2)c1 |
| 4000 nM | O=C(Nc1cccc(NC(=O)Nc2ccon2)c1)Nc1ccon1 |
| 2900 nM | CN(C)c1ccc(NC(=O)Nc2cc(NC(=O)Nc3ccc(N(C)C)cc3)c(Br)cc2Br)cc1 |
| 880 nM | O=C(Cc1ccc2ccccc2c1)Nc1cccc(NC(=O)c2cc(Cl)cc(Cl)c2)c1 |
| 3350 nM | O=C(NCc1ccccc1)Nc1cccc(NC(=O)c2cc(Cl)cc(Cl)c2)c1 |
| 930 nM | O=C(Nc1cccc(NC(=O)c2cc(Cl)cc(Cl)c2)c1)c1cc(Cl)cc(Cl)c1 |
| 870 nM | O=C(CC(c1ccccc1)c1ccccc1)Nc1cccc(NC(=O)c2cc(Cl)cc(Cl)c2)c1 |

Molecular target: Peptidyl-prolyl cis-trans isomerase A (Rattus norvegicus) (UniProt P10111)
Assay: In vitro inhibition of the rotamase activity of cyclophilin A (CyPA) […]

Chain of Peptidyl-prolyl cis-trans isomerase A (Rattus norvegicus) (P10111 whole entry): as above

| inhibition | SMILES |
| --- | --- |
| 100% | O=C(Nc1cccc2ccccc12)NC1CCCC(NC(=O)Nc2cccc3ccccc23)C1 (stereo not drawn) |
| 100% | O=C(NCc1cccc2ccccc12)Nc1cccc(NC(=O)NCc2cccc3ccccc23)c1 |
| 44% | O=C(Cc1ccccc1)Nc1cccc(NC(=O)c2cc(Cl)cc(Cl)c2)c1 |
| 100% | O=C(Nc1ccc(I)cc1)Nc1cc(NC(=O)Nc2ccc(I)cc2)c(Br)cc1Br |
| 8% | COc1cccc(NC(=O)Nc2cccc(NC(=O)Nc3cccc(OC)c3)c2)c1 |
| 100% | O=C(Nc1cccc(NC(=O)Nc2ccc(Br)cc2Br)c1)Nc1ccc(Br)cc1Br |
| 100% | O=C(Nc1cc(Cl)cc(Cl)c1)NC1CCCC(NC(=O)Nc2cc(Cl)cc(Cl)c2)C1 (stereo not drawn) |
| 100% | COc1cccc(NC(=O)NC2CCCC(NC(=O)Nc3cccc(OC)c3)C2)c1 (stereo not drawn) |
| 32% | O=C(Nc1ccc(Cl)cc1)NC1CCCC(NC(=O)Nc2ccc(Cl)cc2)C1 (stereo not drawn) |
| 6% | O=C(Nc1cccc(NC(=O)c2cccnc2)c1)c1cccnc1 |
| 100% | O=C(NCC(c1ccccc1)c1ccccc1)Nc1cccc(NC(=O)NCC(c2ccccc2)c2ccccc2)c1 |
| 38% | N#Cc1cccc(NC(=O)Nc2cccc(NC(=O)Nc3cccc(C#N)c3)c2)c1 |
| 28% | O=C(NC1CCCC(NC(=O)NC23CC4CC(CC(C4)C2)C3)C1)NC12CC3CC(CC(C3)C1)C2 (stereo not drawn) |
| 23% | CCCCNC(=O)Nc1cccc(NC(=O)NCCCC)c1 |
| 40% | Cc1ccc(NC(=O)NC2CCCC(NC(=O)Nc3ccc(C)cc3C)C2)c(C)c1 (stereo not drawn) |
| 24% | O=C(NC1CCCCC1)NC1CCCC(NC(=O)NC2CCCCC2)C1 (stereo not drawn) |
| 100% | O=C(Nc1ccc(Br)cc1Br)NC1CCCC(NC(=O)Nc2ccc(Br)cc2Br)C1 (stereo not drawn) |
| 93% | O=C(Nc1cccc(NC(=O)Nc2ccon2)c1)Nc1ccon1 |
| 98% | CN(C)c1ccc(NC(=O)Nc2cc(NC(=O)Nc3ccc(N(C)C)cc3)c(Br)cc2Br)cc1 |
| 100% | Cc1ccc(NC(=O)Nc2cccc(NC(=O)Nc3ccc(C)cc3C)c2)c(C)c1 |
| 0% | O=C(Nc1cccc(NC(=O)Nc2ccccn2)c1)Nc1ccccn1 |
| 11% | O=C(NCc1ccccc1)NC1CCCC(NC(=O)NCc2ccccc2)C1 (stereo not drawn) |
| 19% | O=C(NCc1ccccc1)Nc1cccc(NC(=O)NCc2ccccc2)c1 |
| 100% | O=C(Nc1cc(Cl)cc(Cl)c1)Nc1cccc(NC(=O)Nc2cc(Cl)cc(Cl)c2)c1 |
| 22% | N#Cc1cccc(NC(=O)NC2CCCC(NC(=O)Nc3cccc(C#N)c3)C2)c1 (stereo not drawn) |
| 7% | CC(C)(C)NC(=O)NC1CCCC(NC(=O)NC(C)(C)C)C1 (stereo not drawn) |
